Results taken from publication PMC7956643, “Synthesis of Novel Pyrido[1,2-c]pyrimidine Derivatives with 6-Fluoro-3-(4-piperidynyl)-1,2-benzisoxazole Moiety as Potential SSRI and 5-HT1A Receptor Ligands” (International Journal of Molecular Sciences, 2021).
Marks after values point to notes of the source that are not given here.

Legend:
SERT protein = molecular target: T1, SERT protein (Rattus norvegicus, UniProt P31652); assay: SERT radioligand binding assay; conditions: [3H]-citalopram 1.0 nM; rat cortex tissue
T1 construct: from tissue; host or cells: rat cortex
T1 sequence (P31652 whole entry): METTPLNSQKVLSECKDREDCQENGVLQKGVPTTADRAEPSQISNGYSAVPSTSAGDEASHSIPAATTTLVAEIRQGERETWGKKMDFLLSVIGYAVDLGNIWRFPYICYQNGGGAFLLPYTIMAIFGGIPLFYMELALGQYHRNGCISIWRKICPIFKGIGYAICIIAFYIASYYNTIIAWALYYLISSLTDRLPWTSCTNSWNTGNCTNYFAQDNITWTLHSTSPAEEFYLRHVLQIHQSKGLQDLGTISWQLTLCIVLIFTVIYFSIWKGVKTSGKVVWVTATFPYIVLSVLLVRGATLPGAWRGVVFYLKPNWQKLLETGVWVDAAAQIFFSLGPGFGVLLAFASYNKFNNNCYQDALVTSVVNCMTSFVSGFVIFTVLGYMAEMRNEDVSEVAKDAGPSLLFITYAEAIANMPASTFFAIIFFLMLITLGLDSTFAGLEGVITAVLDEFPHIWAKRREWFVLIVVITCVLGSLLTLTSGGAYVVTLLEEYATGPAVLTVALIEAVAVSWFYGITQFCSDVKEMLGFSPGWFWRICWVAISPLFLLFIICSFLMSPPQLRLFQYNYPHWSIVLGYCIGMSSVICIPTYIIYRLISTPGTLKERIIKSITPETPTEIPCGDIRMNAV
Procedure: Radioligand binding was performed using rat cortex tissue. All assays were carried out in duplicate. First, 50 µL working solution of the tested compounds, 50 µL [^3H]-citalopram (final concentration 1.0 nM) and 150 µL tissue suspension, prepared in assay buffer (50 mM Tris. pH 7.7; 150 mM NaCl; 5 mM KCl), were transferred to a polypropylene 96-well microplate using 96-wells pipetting station Rainin Liquidator (MettlerToledo). […] The reaction was terminated by rapid filtration through GF/B filter mate presoaked with 0.3% polyethyleneimine for 30 min. Ten rapid washes with 200 µL 50 mM Tris buffer (4 °C, pH 7.7) were performed using an automated harvester system—Harvester-96 MACH III FM (Tomtec). […] Data were fitted to a one-site curve-fitting equation with Prism 6 (GraphPad Software) and Ki values were estimated from the Cheng–Prusoff equation.

human 5-HT1A receptor = molecular target: T2, human 5-HT1A receptor (Homo sapiens, UniProt P08908); assay: 5-HT1A radioligand binding assay; conditions: [3H]-8-OH-DPAT 1 nM; membranes from CHO-K1 cells with human 5-HT1A receptor
T2 construct: purchased PerkinElmer; host or cells: CHO-K1 cells, stably transfected
T2 sequence (P08908 1-422): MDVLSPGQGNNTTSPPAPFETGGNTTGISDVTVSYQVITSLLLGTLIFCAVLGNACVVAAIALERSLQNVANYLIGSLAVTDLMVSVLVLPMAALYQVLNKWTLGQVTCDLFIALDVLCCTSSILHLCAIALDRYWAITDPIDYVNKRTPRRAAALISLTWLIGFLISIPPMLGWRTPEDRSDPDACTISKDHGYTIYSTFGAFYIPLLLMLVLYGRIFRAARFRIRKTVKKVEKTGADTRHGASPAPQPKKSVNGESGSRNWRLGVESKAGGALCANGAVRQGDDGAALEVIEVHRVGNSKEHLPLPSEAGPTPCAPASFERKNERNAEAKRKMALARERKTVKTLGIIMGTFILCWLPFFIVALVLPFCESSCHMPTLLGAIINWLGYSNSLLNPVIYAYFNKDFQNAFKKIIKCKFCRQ
Procedure: Radioligand binding was performed using membranes from CHO-K1 cells stably transfected with the human 5-HT1A receptor (PerkinElmer, Fremont, CA, USA). All assays were carried out in duplicate. Then, 50 µL working solution of the tested compounds, 50 µL [^3H]-8-OH-DPAT (final concentration 1 nM) and 150 µL diluted membranes (20 µg protein per well) prepared in assay buffer (50 mM Tris, pH 7.4, 10 mM MgSO4, 0.5 mM EDTA, 0.1% ascorbic acid) were transferred to a polypropylene 96-well microplate using 96-wells pipetting station Rainin Liquidator (MettlerToledo, Columbus, OH, USA). […] The reaction was terminated by rapid filtration through GF/B filter mate, presoaked with 0.5% polyethyleneimine for 30 min. Ten rapid washes with 200 µL 50 mM Tris buffer (4 °C, pH 7.4) were performed using an automated harvester system—Harvester-96 MACH III FM (Tomtec, Hamden, CT, USA). […] Data were fitted to a one-site curve-fitting equation with Prism 6 (GraphPad Software, San Diego, CA, USA) and Ki values were estimated from the Cheng–Prusoff equation.

5-HT1A receptor = molecular target: T3, 5-HT1A receptor (Mus musculus, UniProt Q64264); assay: Body temperature in mice (induced hypothermia); assay type: in vivo, CD-1 mice; conditions: mice, 5 mg/kg sc
T3 construct: from tissue; host or cells: whole animal, male CD-1 mice
T3 sequence (Q64264 1-421): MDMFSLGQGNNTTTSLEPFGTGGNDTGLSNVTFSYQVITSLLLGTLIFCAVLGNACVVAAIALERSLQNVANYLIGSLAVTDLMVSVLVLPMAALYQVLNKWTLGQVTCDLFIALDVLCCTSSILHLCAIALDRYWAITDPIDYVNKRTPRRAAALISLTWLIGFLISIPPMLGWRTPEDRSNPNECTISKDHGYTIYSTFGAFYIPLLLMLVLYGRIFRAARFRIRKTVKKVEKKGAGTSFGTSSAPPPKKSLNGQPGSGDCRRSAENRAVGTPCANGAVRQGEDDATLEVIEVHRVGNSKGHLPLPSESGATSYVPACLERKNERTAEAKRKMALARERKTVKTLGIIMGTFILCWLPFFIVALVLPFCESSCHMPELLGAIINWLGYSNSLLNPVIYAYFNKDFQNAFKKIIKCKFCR
Procedure: The experiments were performed on male CD-1 mice (23–40 g). The animals were kept at room temperature (21 ± 2 °C) on a natural day-night cycle (March–October) and housed under standard laboratory conditions. They had free access to food and tap water before the experiment. Each experimental group consisted of 6–8 animals/dose. All the animals were used only once. 8-Hydroxy-2-(di-n-propylamino)tetralin hydro-bromide (8-OH-DPAT, Research Biochemical Inc.) was used as aqueous solution. […] Vehicle group was administered as 10% aqueous solution of dimethyl sulphoxide (DMSO). 8-OH-DPAT was injected subcutaneously (sc); 6a and 7g were given intraperitoneally (ip) in a volume of 10 mL/kg/mice. The obtained data were analyzed by Dunnett’s test (one drug administration) or by the Newman–Keuls test (two drugs administrations). Forced swim test: the obtained data was evaluated by one-way analysis of variance (ANOVA) followed by the Dunnett’s multiple comparisons test: p < 0.05 was considered significant.
The results were expressed as a change in body temperature (Δt) with respect to the basal body temperature, as measured at the beginning of the experiment.

SMILES	Ki (SERT protein) [µM]	Ki (human 5-HT1A receptor) [µM]	melting point [°C]	Δt ± SEM, body temperature (5-HT1A receptor; 30 min)	Δt ± SEM, body temperature (5-HT1A receptor; 60 min)	Δt ± SEM, body temperature (5-HT1A receptor; 90 min) [°C]	Δt ± SEM, body temperature (5-HT1A receptor; 120 min) [°C]
Cc1ccccc1-c1c(=O)n(CCCCN2CCC(c3noc4cc(F)ccc34)CC2)c(=O)n2ccccc12 [Compound 6b, 4-(2-Methylphenyl)-2-{4-[4-(6-fluoro-1,2-benzoxazol)-1-piperidyl]butyl}-pyrido[1,2-c]pyrimidine-1,3-dione]	> 5	0.03 ± 0.0035	120 to 122	–	–	–	–
COc1ccccc1-c1c(=O)n(CCCCN2CCC(c3noc4cc(F)ccc34)CC2)c(=O)n2ccccc12 [Compound 6c, 4-(2-Methoxphenyl)-2-{4-[4-(6-fluoro-1,2-benzoxazol)-1-piperidyl]butyl}-pyrido[1,2-c]pyrimidine-1,3-dione]	> 5	0.007 ± 0.001	65 to 70	–	–	–	–
O=c1c(-c2ccccc2F)c2ccccn2c(=O)n1CCCCN1CCC(c2noc3cc(F)ccc23)CC1 [Compound 6e, 4-(2-Fluorophenyl)-2-{4-[4-(6-fluoro-1,2-benzoxazol)-1-piperidyl]butyl}-pyrido[1,2-c]pyrimidine-1,3-dione]	> 1	0.015 ± 0.0006	58 to 62	–	–	–	–
Cc1ccc(-c2c(=O)n(CCCCN3CCC(c4noc5cc(F)ccc45)CC3)c(=O)n3ccccc23)cc1 [Compound 6f, 4-(4-Methylphenyl)-2-{4-[4-(6-fluoro-1,2-benzoxazol)-1-piperidyl]butyl}-pyrido[1,2-c]pyrimidine-1,3-dione]	0.772 ± 0.036	0.074 ± 0.004	158 to 159	–	–	–	–
COc1ccc(-c2c(=O)n(CCCCN3CCC(c4noc5cc(F)ccc45)CC3)c(=O)n3ccccc23)cc1 [Compound 6g, 4-(4-Methoxyphenyl)-2-{4-[4-(6-fluoro-1,2-benzoxazol)-1-piperidyl]butyl}-pyrido[1,2-c]pyrimidine-1,3-dione]	0.73 ± 0.079	0.01 ± 0.0011	163 to 166	–	–	–	–
O=c1c(-c2ccc(Cl)cc2)c2ccccn2c(=O)n1CCCCN1CCC(c2noc3cc(F)ccc23)CC1 [Compound 6h, 4-(4-Chlorophenyl)-2-{4-[4-(6-fluoro-1,2-benzoxazol)-1-piperidyl]butyl}-pyrido[1,2-c]pyrimidine-1,3-dione]	0.31 ± 0.001	0.021 ± 0.0015	152 to 155	–	–	–	–
O=c1c(-c2ccc(F)cc2)c2ccccn2c(=O)n1CCCCN1CCC(c2noc3cc(F)ccc23)CC1 [Compound 6i, 4-(4-Fluorophenyl)-2-{4-[4-(6-fluoro-1,2-benzoxazol)-1-piperidyl]butyl}-pyrido[1,2-c]pyrimidine-1,3-dione]	0.342 ± 0.0288	0.017 ± 0.002	102 to 107	–	–	–	–
CCCN(CCC)C1CCc2cccc(O)c2C1 (stereo not drawn) [Compound 8-OH-DPAT, 8-Hydroxy-2-(di-n-propylamino)tetralin hydro-bromide, reference compound]	–	–	–	−1.7 ± 0.2 ^b °C	−1.1 ± 0.2 ^b °C	−0.1 ± 0.1	0.3 ± 0.3

Further lines, with some results ahead:

Ki (SERT protein) [µM]	Ki (human 5-HT1A receptor) [µM]	melting point [°C]	SMILES	Δt ± SEM, body temperature (5-HT1A receptor; 30 min)	Δt ± SEM, body temperature (5-HT1A receptor; 60 min)	Δt ± SEM, body temperature (5-HT1A receptor; 90 min) [°C]	Δt ± SEM, body temperature (5-HT1A receptor; 120 min) [°C]
0.52 ± 0.0588	0.027 ± 0.002	110 to 113	O=c1c(-c2ccccc2)c2n(c(=O)n1CCCCN1CCC(c3noc4cc(F)ccc34)CC1)CCCC2 [Compound 7a, 4-Phenyl-2-{4-[4-(6-fluoro-1,2-benzoxazol-3-yl)-1-piperidyl]butyl}-5,6,7,8-tetrahydro-pyrido[1,2-c]pyrimidine-1,3-dione]	–	–	–	–
> 1	0.035 ± 0.0035	–	Cc1ccccc1-c1c2n(c(=O)n(CCCCN3CCC(c4noc5cc(F)ccc45)CC3)c1=O)CCCC2 [Compound 7b, 4-(2-Methylphenyl)-2-{4-[4-(6-fluoro-1,2-benzoxazol)-1-piperidyl]butyl}-5,6,7,8-tetrahydro-pyrido[1,2-c]pyrimidine-1,3-dione]	–	–	–	–
0.878 ± 0.088	0.062 ± 0.006	–	COc1ccccc1-c1c2n(c(=O)n(CCCCN3CCC(c4noc5cc(F)ccc45)CC3)c1=O)CCCC2 [Compound 7c, 4-(2-Methoxphenyl)-2-{4-[4-(6-fluoro-1,2-benzoxazol)-1-piperidyl]butyl}-5,6,7,8-tetrahydro-pyrido[1,2-c]pyrimidine-1,3-dione]	–	–	–	–
0.31 ± 0.0345	0.071 ± 0.0069	–	O=c1c(-c2ccccc2Cl)c2n(c(=O)n1CCCCN1CCC(c3noc4cc(F)ccc34)CC1)CCCC2 [Compound 7d, 4-(2-Chlorophenyl)-2-{4-[4-(6-fluoro-1,2-benzoxazol)-1-piperidyl]butyl}-5,6,7,8-tetrahydro-pyrido[1,2-c]pyrimidine-1,3-dione]	–	–	–	–
> 1	0.036 ± 0.0041	–	O=c1c(-c2ccccc2F)c2n(c(=O)n1CCCCN1CCC(c3noc4cc(F)ccc34)CC1)CCCC2 [Compound 7e, 4-(2-Fluorophenyl)-2-{4-[4-(6-fluoro-1,2-benzoxazol)-1-piperidyl]butyl}-5,6,7,8-tetrahydro-pyrido[1,2-c]pyrimidine-1,3-dione]	–	–	–	–
1.77 ± 0.18	0.052 ± 0.0025	107 to 110	Cc1ccc(-c2c3n(c(=O)n(CCCCN4CCC(c5noc6cc(F)ccc56)CC4)c2=O)CCCC3)cc1 [Compound 7f, 4-(4-Methylphenyl)-2-{4-[4-(6-fluoro-1,2-benzoxazol)-1-piperidyl]butyl}-5,6,7,8-tetrahydro-pyrido[1,2-c]pyrimidine-1,3-dione]	–	–	–	–
0.29 ± 0.0227	0.025 ± 0.003	116 to 120	O=c1c(-c2ccc(Cl)cc2)c2n(c(=O)n1CCCCN1CCC(c3noc4cc(F)ccc34)CC1)CCCC2 [Compound 7h, 4-(4-Chlorophenyl)-2-{4-[4-(6-fluoro-1,2-benzoxazol)-1-piperidyl]butyl}-5,6,7,8-tetrahydro-pyrido[1,2-c]pyrimidine-1,3-dione]	–	–	–	–
